Molecular target: mitochondrial ETC complex I (NADH-ubiquinone oxidoreductase) (Homo sapiens, UniProt O75251+O75306+P03886)
Assay: Oxygen consumption
Type: cell-based

`CC(C)(O)[C@H]1CC[C@](C)([C@@H](O)CC[C@](C)(O)[C@H]2CC[C@H]3O[C@@H]([C@]4(C)CC[C@@H](Br)C(C)(C)O4)CC[C@]3(C)O2)O1` [compound 1, thyrsiferol] gave an IC50 of 3 µM.
